These results are taken from patent EP1499590B1, “Piperidine derivatives as potassium channel blockers” (AstraZeneca AB, priority 2001, dated 2003).

By pIC50 is commonly meant −log10 of the IC50, conventionally taken in molar units.

This assay concerns the target T1, human ether-a-go-go-related-gene (hERG)-encoded potassium channel (Homo sapiens, UniProt Q12809).
T1 construct: expressed in transfected cells; host or cells: Human embryonic kidney (HEK) cells, grown under Geneticin G418 selection
The assay can be described thus: hERG-encoded potassium channel inhibition test (whole-cell patch clamp, tail current). It counts as cell-based. (The hERG channel carries a current that helps repolarise heart muscle cells.)

Where [1] appears, read: HEK cells expressing the hERG-encoded channel, tail current after step from +40 mV to -50 mV, room temperature (~20 °C), read-out: IC50.

Each structure is given as a SMILES string. pIC50: −log10 of the molar value. Like-named read-outs stand apart in the source and are kept apart here.

T1 sequence (Q12809 whole entry): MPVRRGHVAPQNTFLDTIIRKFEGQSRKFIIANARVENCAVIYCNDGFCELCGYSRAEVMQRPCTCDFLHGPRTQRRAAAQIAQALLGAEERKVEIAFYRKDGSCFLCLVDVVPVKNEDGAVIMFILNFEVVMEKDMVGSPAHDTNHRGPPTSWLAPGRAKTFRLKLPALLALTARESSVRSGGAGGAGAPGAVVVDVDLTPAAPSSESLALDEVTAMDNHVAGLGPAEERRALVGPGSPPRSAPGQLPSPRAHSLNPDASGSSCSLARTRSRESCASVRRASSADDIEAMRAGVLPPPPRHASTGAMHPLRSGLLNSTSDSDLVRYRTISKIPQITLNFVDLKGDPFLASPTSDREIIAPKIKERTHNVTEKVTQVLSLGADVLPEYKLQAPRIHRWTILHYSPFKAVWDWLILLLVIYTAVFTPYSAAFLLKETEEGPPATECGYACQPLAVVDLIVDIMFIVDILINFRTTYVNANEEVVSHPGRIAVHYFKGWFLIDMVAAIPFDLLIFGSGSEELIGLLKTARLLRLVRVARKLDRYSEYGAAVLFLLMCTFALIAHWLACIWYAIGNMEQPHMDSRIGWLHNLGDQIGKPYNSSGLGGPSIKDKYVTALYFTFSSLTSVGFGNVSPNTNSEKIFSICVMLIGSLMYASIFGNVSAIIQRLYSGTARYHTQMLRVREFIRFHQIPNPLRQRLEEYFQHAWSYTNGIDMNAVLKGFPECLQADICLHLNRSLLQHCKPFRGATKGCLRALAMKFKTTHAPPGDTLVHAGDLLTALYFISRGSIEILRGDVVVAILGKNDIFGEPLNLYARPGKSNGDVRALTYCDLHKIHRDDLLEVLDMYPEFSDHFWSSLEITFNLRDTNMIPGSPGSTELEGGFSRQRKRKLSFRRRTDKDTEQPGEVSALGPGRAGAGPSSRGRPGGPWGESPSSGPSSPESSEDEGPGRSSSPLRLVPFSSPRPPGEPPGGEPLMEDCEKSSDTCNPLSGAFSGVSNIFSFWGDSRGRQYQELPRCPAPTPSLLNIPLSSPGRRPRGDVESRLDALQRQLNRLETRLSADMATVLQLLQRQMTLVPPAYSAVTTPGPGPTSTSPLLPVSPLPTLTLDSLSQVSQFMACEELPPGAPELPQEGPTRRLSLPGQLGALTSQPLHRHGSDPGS
Procedure: This assay determines the ability of a test compound to inhibit the tail current flowing through the human ether-a-go-go-related-gene (hERG)-encoded potassium channel.
One or two days before each experiment, the cells were detached from the tissue culture flasks with Accutase (TCS Biologicals) using standard tissue culture methods. They were then put onto glass coverslips resting in wells of a 12 well plate and covered with 2 ml of the growing media.
For each cell recorded, a glass coverslip containing the cells was placed at the bottom of a Perspex chamber containing bath solution (see below) at room temperature (~20 °C). This chamber was fixed to the stage of an inverted, phase-contrast microscope. Immediately after placing the coverslip in the chamber, bath solution was perfused into the chamber from a gravity-fed reservoir for 2 minutes at a rate of ~ 2 ml/min. After this time, perfusion was stopped.
A patch pipette made from borosilicate glass tubing (GC120F, Harvard Apparatus) using a P-97 micropipette puller (Sutter Instrument Co.) was filled with pipette solution (see hereinafter). The pipette was connected to the headstage of the patch clamp amplifier (Axopatch 200B, Axon Instruments) via a silver/silver chloride wire. The headstage ground was connected to the earth electrode. This consisted of a silver/silver chloride wire embedded in 3% agar made up with 0.85% sodium chloride.
The cell was recorded in the whole cell configuration of the patch clamp technique. Following "break-in", which was done at a holding potential of -80 mV (set by the amplifier), and appropriate adjustment of series resistance and capacitance controls, electrophysiology software (Clampex, Axon Instruments) was used to set a holding potential (-80 mV) and to deliver a voltage protocol. This protocol was applied every 15 seconds and consisted of a 1 s step to +40 mV followed by a I s step to -50 mV. The current response to each imposed voltage protocol was low pass filtered by the amplifier at 1 kHz. The filtered signal was then acquired, on line, by digitising this analogue signal from the amplifier with an analogue to digital converter. […]
The amplitude of the hERG-encoded potassium channel tail current following the step from +40 mV to -50 mV was recorded on-line by Clampex software (Axon Instruments). […]
The effect of each concentration of test compound was quantified by expressing the tail current amplitude in the presence of a given concentration of test compound as a percentage of that in the presence of vehicle.
Test compound potency (IC50) was determined by fitting the percentage inhibition values making up the concentration-effect to a four parameter Hill equation using a standard data-fitting package.

`CC(=O)Nc1ccc(O)cc1OC[C@@](C)(O)CNC1CCN(Cc2ccc(Cl)cc2)CC1` [Example 1, 4-({(2S)-3-[2-(acetylamino)-5-hydroxyphenoxy]-2-hydroxy-2-methylpropyl}ammonio)-1-(4-chlorobenzyl)piperidinium di(2,2,2-trifluoroacetate)] had a negative logarithm of the IC50 (pIC50) of 4.50.

In the case of `CC(=O)Nc1ccc(Cl)cc1OCC(O)CNC1CCN(Cc2ccc(Cl)cc2)CC1` (stereo not shown) [Comparison C], the pIC50 under setting [1] was 7.00.

Regarding `COc1ccc(NC(C)=O)c(OC[C@@](C)(O)CNC2CCN(Cc3ccc(Cl)cc3)CC2)c1` [Comparison B], under setting [1], the pIC50 is 6.52. `CC(=O)Nc1ccccc1OCC(O)CNC1CCN(Cc2ccc(Cl)cc2)CC1` (stereo not shown) [Comparison A]: under setting [1], the negative-log IC50 (pIC50) was 6.52.
